Results: patent US20200199647A1, “ASSAY FOR SCREENING MODULATORS OF HOLOPHOSPHATASE ACTIVITY” (UNITED KINGDOM RESEARCH AND INNOVATION, priority 2017, published 2020)

Tests used:
R15B^N/R15A^C = molecular target: T1, R15B^N/R15A^C (Homo sapiens, UniProt O75807+Q5SWA1); experiment: Dephosphorylation of P-eIF2α by chimeric holophosphatase PP1c-R15B^N/R15A^C; type: biochemical; conditions: PP1c 10 nM, compounds 100 μM, 30° C., 16 h
T1 construct: PPP1R15B amino acids 340-698 (R15B), 340-635 (R15B^N), and 636-698 (R15B^C); PPP1R15A amino acids 325-636 (R15A), 325-512 (R15A^N), and 513-636 (R15A^C); R15A^C (PPP1R15A amino acids 513-636); His6 (C); made in house; host or cells: E. coli BL21 pLysS (chimera, eIF2α); E. coli BL21/pGro7 (PP1c)
T1 sequence (Q5SWA1+O75807 fused, stated change not applied): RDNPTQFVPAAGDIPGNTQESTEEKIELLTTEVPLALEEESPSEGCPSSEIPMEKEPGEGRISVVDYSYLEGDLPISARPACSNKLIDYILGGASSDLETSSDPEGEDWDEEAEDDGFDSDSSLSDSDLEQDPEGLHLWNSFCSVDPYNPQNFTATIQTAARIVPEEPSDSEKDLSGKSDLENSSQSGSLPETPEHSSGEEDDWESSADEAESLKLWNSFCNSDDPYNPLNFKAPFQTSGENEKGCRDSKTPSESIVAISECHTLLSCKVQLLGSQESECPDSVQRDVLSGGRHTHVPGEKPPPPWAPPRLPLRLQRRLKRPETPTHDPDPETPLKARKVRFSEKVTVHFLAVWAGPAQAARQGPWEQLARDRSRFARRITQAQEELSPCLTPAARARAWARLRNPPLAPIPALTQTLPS
T1 sequence (P62136 7-330 partner): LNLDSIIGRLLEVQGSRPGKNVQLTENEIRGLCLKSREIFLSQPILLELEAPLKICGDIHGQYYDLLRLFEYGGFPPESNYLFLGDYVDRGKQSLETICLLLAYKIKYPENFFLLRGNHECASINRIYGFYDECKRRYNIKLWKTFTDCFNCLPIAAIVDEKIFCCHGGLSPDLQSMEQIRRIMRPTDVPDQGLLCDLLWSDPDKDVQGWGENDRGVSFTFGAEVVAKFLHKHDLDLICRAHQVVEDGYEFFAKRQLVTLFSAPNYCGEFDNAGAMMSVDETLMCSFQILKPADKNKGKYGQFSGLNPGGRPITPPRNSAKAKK
Text: (§1) The cDNA encoding human PPP1R15A, PPP1R15B and PPP1R3A regulatory subunits were cloned into a pMAL-c5×-His vector, encoding for an amino-terminal MBP-tag and a carboxy-terminal His6-tag. […] R15A^N/R15B^C Chimeras were obtained by swapping the amino-terminal regions (R15^N) of R15A and R15B proteins described above, whilst maintaining the same carboxy-terminal regions (R15^C), to produce R15B^N/R15A^C and […] chimeras respectively, using In-Fusion cloning (Takara). All regulatory subunits were expressed in BL21 pLysS cells in Luria broth (LB) at 30° C. overnight. […] R15 proteins were stored at −80° C. and used within one month.
(§2) PP1c was diluted to the appropriate concentration (as indicated in the figure legends) in dephosphorylation buffer immediately prior to use. Dephosphorylation reactions were carried out by pre-incubating diluted PP1c in the presence or absence of regulatory subunits (either […]), and/or compounds (all at 100 μM, except for Salubrinal which was used at 30 μM), for 15′ at RT. All compounds were diluted in DMSO, and DMSO vehicle was used in all control experiments.
(§3) The reaction was initiated by the addition of 1 μM P-eIF2α or ^33P Phosphorylase a substrates and then incubated at 30° C. for 16 h with shaking at 350 rpm. Reactions were stopped by addition of 4× Laemmli sample buffer. eIF2α samples were analyzed by immunoblotting or Phos-tag gels. […]

R15B = molecular target: T2, R15B (Homo sapiens, UniProt Q5SWA1); experiment: Pull-down: binding of P-eIF2α to MBP-tagged R15B on amylose beads; conditions: 200 μM compound, 200 nM MBP-R15B, 1 μM P-eIF2α, 10 min 4° C.
T2 construct: PPP1R15B amino acids 340-698 (R15B); His6 (C); made in house; host or cells: E. coli BL21 pLysS
T2 sequence (Q5SWA1 340-698): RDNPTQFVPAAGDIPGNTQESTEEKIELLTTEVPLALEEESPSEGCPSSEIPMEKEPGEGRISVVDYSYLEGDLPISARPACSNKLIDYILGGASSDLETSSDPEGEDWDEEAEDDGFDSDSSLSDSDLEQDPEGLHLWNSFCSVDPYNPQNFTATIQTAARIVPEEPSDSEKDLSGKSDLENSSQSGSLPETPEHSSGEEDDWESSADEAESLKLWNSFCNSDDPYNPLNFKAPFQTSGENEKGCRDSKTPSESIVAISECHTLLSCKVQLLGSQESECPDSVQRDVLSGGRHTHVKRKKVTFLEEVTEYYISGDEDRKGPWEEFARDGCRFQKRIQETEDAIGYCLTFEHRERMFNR
Description: (§4) Purified MBP-tagged regulatory subunits (200 nM), P-eIF2α (1 μM), PP1c ([…]), and 200 μM compounds, or DMSO vehicle, were added as appropriate to 20 μl amylose magnetic bead, pre-equilibrated with interaction buffer (50 mM Tris (pH 7.4), 200 mM NaCl, 0.05% Tween20) in 200 μl volume. All protein dilutions were carried out in interaction buffer. 5% input sample was removed, and added to 4× Laemmli sample buffer for later analysis. The beads were incubated for 10′ at 4° C. The supernatant was removed, and the beads were washed thoroughly with interaction buffer and then resuspended with 50 μl of 2× Laemmli sample buffer. Samples were run on 4-12% NuPAGE Bis-Tris gels (Life Technologies) and analysed by immunoblotting, using anti-MBP HRP (E8038) (NEB), anti-eIF2α (ab26197) (AbCam) or anti-PPP1A (ab137512) (AbCam) antibodies.

R15A^N/R15B^C = molecular target: T3, R15A^N/R15B^C (Homo sapiens, UniProt O75807+Q5SWA1); experiment: Dephosphorylation of P-eIF2α by chimeric holophosphatase PP1c-R15A^N/R15B^C; type: biochemical; conditions: PP1c 10 nM, compounds 100 μM, 30° C., 16 h
T3 construct: PPP1R15A amino acids 325-636 (R15A), 325-512 (R15A^N), and 513-636 (R15A^C); PPP1R15B amino acids 340-698 (R15B), 340-635 (R15B^N), and 636-698 (R15B^C); R15B^C (PPP1R15B amino acids 636-698); His6 (C); made in house; host or cells: E. coli BL21 pLysS (chimera, eIF2α); E. coli BL21/pGro7 (PP1c)
T3 sequence (O75807+Q5SWA1 fused, stated change not applied): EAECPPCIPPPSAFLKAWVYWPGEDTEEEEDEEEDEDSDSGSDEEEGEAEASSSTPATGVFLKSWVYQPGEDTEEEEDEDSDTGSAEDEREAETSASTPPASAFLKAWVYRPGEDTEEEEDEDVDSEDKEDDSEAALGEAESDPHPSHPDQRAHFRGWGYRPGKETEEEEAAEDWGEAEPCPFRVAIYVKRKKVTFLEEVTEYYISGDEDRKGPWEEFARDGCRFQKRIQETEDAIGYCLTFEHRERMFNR
T3 sequence (P62136 7-330 partner): as the sequence (P62136 7-330 partner) above
Text: as §1, §2, §3

R15B-PP1c = molecular target: T4, R15B-PP1c (Homo sapiens, UniProt Q5SWA1); experiment: In vitro dephosphorylation of P-eIF2α by recombinant R15B-PP1c holophosphatase (10 nM PP1c); type: biochemical; conditions: PP1c 10 nM, 1 μM P-eIF2α, compounds 100 μM, 30° C., 16 h
T4 construct: PPP1R15B amino acids 340-698 (R15B); His6 (C); made in house; host or cells: E. coli BL21 pLysS (R15B, eIF2α); E. coli BL21/pGro7 (PP1c)
T4 sequence (P62136 7-330 partner limits assumed, one chain of several): as the sequence (P62136 7-330 partner) above
Description: as §2
The reaction was initiated by the addition of 1 μM P-eIF2α or ^33P Phosphorylase a substrates and then incubated at 30° C. for 16 h with shaking at 350 rpm. Reactions were stopped by addition of 4× Laemmli sample buffer. eIF2α samples were analyzed by immunoblotting or Phos-tag gels. P-eIF2α dephosphorylation was analysed by immunoblotting using anti-Phospho-eIF2α (SerS1) (#9721) (Cell Signaling) and anti-eIF2α (ab26197) (AbCam) antibodies. Samples in FIG. 8 and FIG. 16 were run on a 15% SuperSep Phos-tag acrylamide gel (Alpha Laboratories) and visualized by staining with InstantBlue Protein Stain.

R15A = molecular target: T5, R15A (Homo sapiens, UniProt O75807); experiment: Pull-down: binding of P-eIF2α to MBP-tagged R15A on amylose beads; conditions: 200 μM compound, 200 nM MBP-R15A, 1 μM P-eIF2α, 10 min 4° C.
T5 construct: PPP1R15A amino acids 325-636 (R15A); His6 (C); made in house; host or cells: E. coli BL21 pLysS
T5 sequence (O75807 325-636, stated change not applied): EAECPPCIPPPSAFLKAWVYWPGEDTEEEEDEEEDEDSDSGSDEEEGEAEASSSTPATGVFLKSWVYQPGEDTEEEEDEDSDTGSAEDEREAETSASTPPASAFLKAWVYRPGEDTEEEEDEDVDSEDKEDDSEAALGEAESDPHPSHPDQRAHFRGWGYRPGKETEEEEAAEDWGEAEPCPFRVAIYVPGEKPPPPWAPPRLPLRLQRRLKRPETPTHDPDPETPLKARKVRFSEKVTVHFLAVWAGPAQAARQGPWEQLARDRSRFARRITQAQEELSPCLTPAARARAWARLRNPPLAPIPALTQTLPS
Description: as §4

inhibition of R15B^N/R15A^C chimeric holophosphatase (R15B^N/R15A^C)	effect on binding of eIF2α to R15B (R15B)	inhibition of R15A^N/R15B^C chimeric holophosphatase (R15A^N/R15B^C)	inhibition of R15B-PP1c eIF2α holophosphatase (R15B-PP1c)	SMILES	effect on binding of eIF2α to R15A (R15A)
largely insensitive	no such effect was observed	inhibited	not R15B-PP1c	N=C(N)N/N=C/c1c(Cl)cccc1Cl [Guanabenz]	decreased the binding of R15A to eIF2α
selectively inhibited R15B^N/R15A^C	decreased the binding of eIF2α to R15B	not R15A^N/R15B^C	selectively inhibited R15B-PP1c	NC(N)=N/N=C/c1cccc(Cl)c1Cl [Raphin1]	this inhibition was not observed with R15A
